ChEMBL document CHEMBL4483862, “Open-source discovery of chemical leads for next-generation chemoprotective antimalarials” (2018)

Test system: Plasmodium berghei
Assay: Luciferase/luciferin-expressing antifolate-resistant parasites were used to infect a culture of HepG2 cells that were pre-incubated with compounds. Infected hepatocytes emit light due to the luciferase reaction. Assay results are presented as the percent inhibition of light emission compared to control. […]
Format: functional
Conditions: sporozoite; for IC90: read-out: LUCIFERASE INFECTION ASSAY - IC90
[1] = read-out: LUCIFERASE INFECTION ASSAY - IC50

Row | SMILES | IC90 | IC50 [1] | further results
1 | COc1ccc(-c2cnc3cnc(-c4cccc(NS(C)(=O)=O)c4)cn23)cc1 | 3.7 µM |  | IC50 (PBLUC_HILL_SLOPE 9.6, PBLUC_R_SQUARED 0.49, read-out: LUCIFERASE INFECTION ASSAY - IC50): 2.94 µM
2 | Fc1ccc(COc2ccc(Cl)cc2CNCc2ccccn2)cc1 | > 9.25 µM |  | IC50 (PBLUC_HILL_SLOPE 3.23, PBLUC_R_SQUARED 0.405, read-out: LUCIFERASE INFECTION ASSAY - IC50): 6.55 µM
3 | CCOC(=O)c1sc(NC(=O)c2ccc(C)s2)cc1C | > 10 µM | > 10 µM | 
4 | CCOc1nc(N)c(C#N)c(-c2ccc(C(F)(F)F)cc2)c1C#N | 8.21 µM | 4.53 µM | 
5 | CCCc1cc(=O)nc(SCC(=O)NC(=O)c2ccc(C(C)(C)C)cc2)[nH]1 | > 10 µM | > 10 µM | 
6 | O=C(c1ccc([N+](=O)[O-])o1)N1CCc2sccc2C1c1ccccc1 (configuration not stated) | > 10 µM |  | IC50 (HEPG2TOX_HILL_SLOPE 0.0396, HEPG2TOX_R_SQUARED 0.037, PBLUC_HILL_SLOPE 3.01, PBLUC_R_SQUARED 0.32, read-out: LUCIFERASE INFECTION ASSAY - IC50): 6.65 µM
7 | COc1cc2nc(SCc3c(C)noc3C)n(CCC3=CCCCC3)c(=O)c2cc1OC | > 10 µM | > 10 µM | 
8 | COc1cc(-c2cc(-c3ccc(F)cc3)cnc2N)ccc1O | 4.78 µM |  | IC50 (PBLUC_HILL_SLOPE 9.98, PBLUC_R_SQUARED 0.631, read-out: LUCIFERASE INFECTION ASSAY - IC50): 3.84 µM
9 | COc1ccc(N2C(=O)C(=O)N(Cc3c(C)cc(C(C)(C)C)cc3C)C2=O)cc1 | 7.85 µM |  | IC50 (HEPG2TOX_HILL_SLOPE 7.7, HEPG2TOX_R_SQUARED 0.735, PBLUC_HILL_SLOPE 4.71, PBLUC_R_SQUARED 0.498, read-out: LUCIFERASE INFECTION ASSAY - IC50): 4.92 µM
10 | O=C(Nc1ccncc1)c1cc([N+](=O)[O-])ccc1Sc1ccccc1 | > 9.39 µM |  | IC50 (PBLUC_HILL_SLOPE 0.732, PBLUC_R_SQUARED 0.239, read-out: LUCIFERASE INFECTION ASSAY - IC50): 3.82 µM
11 | C#Cc1cccc(NC(=O)c2[nH]c(C)c(C(=O)OCC)c2C)c1 | > 10 µM | > 10 µM | 
12 | CCC(C)NC(=O)c1c(NC(=O)c2cc(F)ccc2F)nc2ccc(C)cn12 (configuration not stated) | 3.36 µM |  | IC50 (HEPG2TOX_HILL_SLOPE 5, HEPG2TOX_R_SQUARED 0.803, PBLUC_HILL_SLOPE 11.7, PBLUC_R_SQUARED 0.232, read-out: LUCIFERASE INFECTION ASSAY - IC50): 2.78 µM
13 | O=C1Nc2ccc(Br)cc2/C1=N\N=C\c1cc([N+](=O)[O-])ccc1OC(F)F | > 10 µM | > 10 µM | 
14 | COC(=O)c1scc(S(=O)(=O)Cc2ccco2)c1N/N=C(\C#N)S(=O)(=O)C(C)C | > 7.18 µM | > 7.18 µM | 
15 | CN(C)CCNC(=O)c1ccc(-c2cnc3c(Nc4cccc(C(F)(F)F)c4)nccn23)cc1 | > 7.04 µM |  | IC50 (PBLUC_HILL_SLOPE 63.8, PBLUC_R_SQUARED 0.339, read-out: LUCIFERASE INFECTION ASSAY - IC50): 6.95 µM
16 | Cc1[nH]ncc1CCCNc1nc(C(F)(F)F)nc2ccccc12 | > 10 µM |  | IC50 (FFLUC_HILL_SLOPE 6.95, FFLUC_R_SQUARED 0.127, read-out: LUCIFERASE INFECTION ASSAY - IC50): > 10 µM
17 | Cn1c(SCc2nc3ccc(Cl)cc3n2CCO)nc2scc(-c3ccc(F)cc3)c2c1=O | 3.59 µM |  | IC50 (PBLUC_HILL_SLOPE 30.6, PBLUC_R_SQUARED 0.504, read-out: LUCIFERASE INFECTION ASSAY - IC50): 3.34 µM
18 | CCN(CC)S(=O)(=O)c1cc(C)c(C)c(NC(=O)c2cc(C3CC3)nc3onc(C)c23)c1 | 9.64 µM |  | IC50 (PBLUC_HILL_SLOPE 5.13, PBLUC_R_SQUARED 0.485, read-out: LUCIFERASE INFECTION ASSAY - IC50): 6.28 µM
19 | Cc1cc(N)c(N)cc1C | 6.18 µM |  | IC50 (PBLUC_HILL_SLOPE 0.927, PBLUC_R_SQUARED 0.706, read-out: LUCIFERASE INFECTION ASSAY - IC50): 0.577 µM
20 | Nc1cc(C(F)(F)F)ccc1Sc1ccccn1 | > 12.2 µM |  | IC50 (PBLUC_HILL_SLOPE 27.6, PBLUC_R_SQUARED 0.179, read-out: LUCIFERASE INFECTION ASSAY - IC50): 11.8 µM
21 | CC(C)(C)c1cc(C(=O)OCC(=O)N2CCCCC2)cc(C(C)(C)C)c1 | > 10 µM |  | IC50 (PBLUC_HILL_SLOPE 1.88, PBLUC_R_SQUARED 0.16, read-out: LUCIFERASE INFECTION ASSAY - IC50): 8.44 µM
22 | O=C(Nc1ccc(F)cc1)Nc1cnn(-c2ccc([N+](=O)[O-])cc2)c1C(F)(F)F | > 8.06 µM | 2.92 µM | 
23 | CC(C)c1cc(C(=O)N2CCc3c(cc(-c4cccc(F)c4)c(=O)n3CCN3CCCCC3)C2)[nH]n1 | > 6.71 µM |  | IC50 (PBLUC_HILL_SLOPE 1.58, PBLUC_R_SQUARED 0.377, read-out: LUCIFERASE INFECTION ASSAY - IC50): 1.78 µM

Row | SMILES | IC90 | IC50 [1] | further results
24 | N#Cc1cnc(S)nc1N | > 21.7 µM | > 21.7 µM | 
25 | Cc1cc(C(=O)COC(=O)c2ccc[nH]c2=O)c(C)n1CC1CCCO1 (configuration not stated) | > 10 µM |  | IC50 (FFLUC_HILL_SLOPE 9.51, FFLUC_R_SQUARED 0.378, PBLUC_HILL_SLOPE 2.55, PBLUC_R_SQUARED 0.111, read-out: LUCIFERASE INFECTION ASSAY - IC50): 6.62 µM
26 | COC(=O)c1ccc(/C=C/C(=O)c2ccccc2F)cc1 | > 10 µM |  | IC50 (HEPG2TOX_HILL_SLOPE 28.5, HEPG2TOX_R_SQUARED 0.619, read-out: LUCIFERASE INFECTION ASSAY - IC50): > 10 µM
27 | COc1ccccc1N(CCC#N)C(=O)COC(=O)/C=C/c1ccc(OC(F)F)cc1 | > 10 µM | > 10 µM | 
28 | O=C(Cc1noc2ccccc12)N1CCN(c2ccc(C(F)(F)F)cn2)CC1 | > 10 µM | > 10 µM | 
29 | Cc1c(C#N)c(Sc2ccccc2NC(=O)c2ccco2)nc2ccccc12 | 8.38 µM |  | IC50 (HEPG2TOX_HILL_SLOPE 2.88, HEPG2TOX_R_SQUARED 0.661, PBLUC_HILL_SLOPE 2.8, PBLUC_R_SQUARED 0.14, read-out: LUCIFERASE INFECTION ASSAY - IC50): 3.82 µM
30 | O=C1CC(c2c(F)cccc2Cl)CC2=Nc3ccccc3NC(c3ccc(Cl)cc3)C12 (configuration not stated) | > 7.28 µM |  | IC50 (HEPG2TOX_HILL_SLOPE 0.118, HEPG2TOX_R_SQUARED 0.0386, read-out: LUCIFERASE INFECTION ASSAY - IC50): > 7.28 µM
31 | COc1cc(C2NCC(c3ccc(Cl)cc3Cl)c3c2[nH]c2ccccc32)ccc1OCC(C)C (configuration not stated) | 3.76 µM |  | IC50 (PBLUC_HILL_SLOPE 12.5, PBLUC_R_SQUARED 0.54, read-out: LUCIFERASE INFECTION ASSAY - IC50): 3.15 µM
32 | Fc1ccc(Cc2ccc3ncc(-c4ccncc4)n3n2)cc1 | 9.84 µM |  | IC50 (HEPG2TOX_HILL_SLOPE 3.58, HEPG2TOX_R_SQUARED 0.787, PBLUC_HILL_SLOPE 13.1, PBLUC_R_SQUARED 0.419, read-out: LUCIFERASE INFECTION ASSAY - IC50): 8.32 µM
33 | N#CC(C#N)=NNc1ccc(-n2ccc(C(F)(F)F)n2)cc1 | > 10.8 µM | 4.97 µM | 
34 | CCC(=O)c1cc(Br)ccc1OC(=O)Cc1coc2cc(C)c(C)cc12 | 8.33 µM |  | IC50 (FFLUC_HILL_SLOPE 11.7, FFLUC_R_SQUARED 0.164, HEPG2TOX_HILL_SLOPE 5.81, HEPG2TOX_R_SQUARED 0.234, PBLUC_HILL_SLOPE 5.23, PBLUC_R_SQUARED 0.568, read-out: LUCIFERASE INFECTION ASSAY - IC50): 5.48 µM
35 | O=C(OCC1CCCCC1)c1[nH]nc2ccccc12 | > 10 µM | > 10 µM | 
36 | CN(C)c1cc(CNC(=O)c2cc3c(F)cccc3s2)ccn1 | 7.57 µM |  | IC50 (HEPG2TOX_HILL_SLOPE 10.4, HEPG2TOX_R_SQUARED 0.0222, PBLUC_HILL_SLOPE 5.26, PBLUC_R_SQUARED 0.456, read-out: LUCIFERASE INFECTION ASSAY - IC50): 4.99 µM
37 | O=C(Nc1ccc(Cl)cc1C(F)(F)F)C(OC(=O)C(c1ccccc1)c1ccccc1)c1ccccc1 (configuration not stated) | > 10 µM | > 10 µM | 
38 | CC(C)(C)C(=O)Nc1ccc([N+](=O)[O-])cc1C#N | 4.31 µM |  | IC50 (PBLUC_HILL_SLOPE 2.44, PBLUC_R_SQUARED 0.671, read-out: LUCIFERASE INFECTION ASSAY - IC50): 1.75 µM
39 | COc1ccc(-c2ccnc3n[nH]c(-c4ccc5c(c4)OCO5)c23)cc1OC | 4.36 µM |  | IC50 (HEPG2TOX_HILL_SLOPE 5.74, HEPG2TOX_R_SQUARED 0.837, PBLUC_HILL_SLOPE 9.49, PBLUC_R_SQUARED 0.381, read-out: LUCIFERASE INFECTION ASSAY - IC50): 3.46 µM
40 | Cc1cccc(Cn2c(CN3CCCCC3)nc3ccccc32)c1 | 9.84 µM |  | IC50 (HEPG2TOX_HILL_SLOPE 11.8, HEPG2TOX_R_SQUARED 0.182, PBLUC_HILL_SLOPE 4.42, PBLUC_R_SQUARED 0.595, read-out: LUCIFERASE INFECTION ASSAY - IC50): 5.99 µM
41 | CCC(=O)Nc1nc2ccc(NC(=O)c3cc(OC)cc(OC)c3)cc2s1 | > 8.56 µM |  | IC50 (PBLUC_HILL_SLOPE 2.13, PBLUC_R_SQUARED 0.461, read-out: LUCIFERASE INFECTION ASSAY - IC50): 5.13 µM
42 | C/C(Cn1nnc(-c2ccc(C(F)(F)F)cc2)n1)=N\NC(N)=S | 3.45 µM |  | IC50 (HEPG2TOX_HILL_SLOPE 10.9, HEPG2TOX_R_SQUARED 0.527, PBLUC_HILL_SLOPE 12.4, PBLUC_R_SQUARED 0.37, read-out: LUCIFERASE INFECTION ASSAY - IC50): 2.89 µM
43 | CC(C)c1ccccc1N(C(=O)C1CCC1)c1nc2ccccc2s1 | > 10 µM | > 10 µM | 
44 | C#CCNS(=O)(=O)c1cccc(C(=O)Nc2nc(C)c(C)s2)c1 | > 10 µM | > 10 µM | 
45 | COc1ccc(-c2csc(CC(=O)NCc3ccccc3)n2)c(OC)c1 | > 10 µM | > 10 µM | 
46 | COc1ccc(-n2nc(C)c3c(O)c4c(nc32)CCCC4)cc1 | > 10.7 µM |  | IC50 (HEPG2TOX_HILL_SLOPE 2.37, HEPG2TOX_R_SQUARED 0.552, read-out: LUCIFERASE INFECTION ASSAY - IC50): > 10.7 µM
